A short description of data set [1]: single time point biodistribution study in mice (brain, liver, serum sobetirome 30 minutes after ip administration, LC-MS/MS). It counts as in vivo. The settings on record: for CNS distribution of sobetirome (in words): ip administration of prodrug, versus sobetirome; for brain sobetirome levels compared to equimolar systemic injection of sobetirome / liver sobetirome levels compared to direct sobetirome injection / serum sobetirome levels compared to direct sobetirome injection: sobetirome measured. The protocol: A biodistribution study in mice was performed on each prodrug to determine the brain, liver, and serum levels of sobetirome following a systemic (intraperitoneal) administration. The mice received an equimolar dose (1.5 μmol/kg) of prodrug and one cohort received the same dose of sobetirome as a control. Tissue and blood were collected 30 minutes post-injection and the concentration of sobetirome was determined using an LC-MS/MS. […] The brain/liver sobetirome ratio was increased compared to sobetirome injection by 5- and 10-fold for 11 and 15, respectively (FIG. 1C)
(§1) Animal Studies: Experimental protocols were in compliance with the National Institutes of Health Guide for the Care and Use of Laboratory Animals and approved by the Oregon Health & Science University Institutional Animal Care & Use Committee. Wild type male C57Bl/6 mice, aged 8-10 weeks, were housed in a climate controlled room with a 12 hour light-dark cycle with ad libitum access to food and water. Mice were injected once intraperitoneally (IP) with sobetirome and prodrugs at 3.05 μmol/kg. Euthanasia was performed on three mice per time points at the following times (0.15 h, 0.5 h, 1 h, 2 h, 4 h, and 8 h) and the tissues and blood were harvested. Tissues were immediately frozen and blood was kept on ice for a minimum of 30 minutes and then spun down at 7,500×G for 15 minutes. Serum (100 uL) was collected and was stored with tissues at −80° C. until samples were processed.
(§2) Serum Processing: The serum samples were warmed to room temperature and 10 μL of 2.99 μM internal standard (D6-Sobetirome) was added to them. Acetonitrile (500 μL) was added and the sample was vortexed for 20 seconds. The sample was then centrifuged at 10,000×G for 15 minutes at 4° C. Next, 90% of the upper supernatant was transferred to a glass test tube and concentrated using a speedvac for 1.5 hours at 45° C. The dried sample was then dissolved in 400 μL of 50:50 ACN:H2O and vortexed for 20 seconds. The resulting mixture was transferred to an Eppendorf and centrifuged at 10,000×G for 15 minutes. The supernatant was filtered with 0.22 μM centrifugal filters and submitted for LC-MS/MS analysis. The standard curve was made with 100 μL of serum from an 8-10 week old mouse not injected with Sobetirome or prodrug. The processing was performed exactly the same except after filtering the sample was split amongst 6 vials. To 5 out of the 6 vials was added Sobetirome to make final concentrations in matrix of (0.1 pg/μL, 1 pg/μL, 10 pg/μL, 100 pg/μL, and 1000 pg/μL).
(§3) Brain Processing: The brain samples were warmed to room temperature and transferred to a homogenizer tube with 5 GoldSpec ⅛ chrome steel balls (Applied Industrial Technologies). The resulting tube was weighed and then 1 mL of H2O was added, followed by 10 μL of 2.99 μM internal standard (D6-sobetirome). The tube was homogenized with a Bead Bug® for 30 seconds and then transferred to a Falcon tube containing 3 mL of ACN. ACN (1 mL) was used to wash homogenizer tube and the solution was transferred back to the Falcon tube. The sample was then processed using the same method for the serum processing except the sample was concentrated in a glass tube using a speedvac for 4 hours at 45° C.
(§4) Liver Processing: The liver samples were warmed to room temperature and transferred to a homogenizer tube with 5 GoldSpec ⅛ chrome steel balls (Applied Industrial Technologies). The resulting tube was weighed and then 1 mL of H2O was added, followed by 10 μL of 2.99 μM internal standard (D6-Sobetirome). The tube was then homogenized with a Bead Bug for 30 seconds. A small sample (100 μL) was then taken from the homogenized mixture and processed. This was done because the liver levels found in some samples were too high for the LC-MS/MS instrument. The samples were then processed using the serum processing method.

Data set [2] in a line: 8-hour time course distribution study in mice (sobetirome in brain, liver, serum after ip administration). Format: in vivo. Conditions: for AUC0-->t of sobetirome: ip 1.5 μmol/kg, 8 hour time course.
Text: (§5) The single time point pilot study was followed up for 11 and 15 vs. sobetirome with an 8-hour time course distribution study in mice. […] The sobetirome AUC, Cmax, and Tmax values in brain, liver and serum resulting from systemic administration of sobetirome, prodrug 11, and prodrug 15 are shown in Table 1 and the curves used to obtain these values are shown in FIGS. 2A, 2B and 2C.
as §1, with “Mice were injected once intraperitoneally (IP) with sobetirome and prodrugs at 3.05 μmol/kg.” left out
as §2, §3, §4

Data set [3] is described as follows: pharmacokinetic study of sobetirome in mice (t1/2). The settings on record: mouse, in vivo.
Text: as §5

Where [4] appears, read: ip 1.5 μmol/kg, 30 minutes post-injection.
[5] abbreviates: male, C57Bl/6, mouse, in vivo, ip.

For the molecule `Cc1cc(OCC(=O)OCC[N+](C)(C)C)cc(C)c1Cc1ccc(O)c(C(C)C)c1.[Br-]` [Compound 8, 2-(trimethylamino)ethyl 2-(4-{[4-hydroxy-3-(propan-2-yl)phenyl]methyl}-3,5-dimethylphenoxy)acetate hydrobromide], in data set [1], the “CNS distribution of sobetirome (in words)” value is listed as “did not improve CNS distribution of sobetirome”.
For `Cc1cc(OCC(=O)OCCN2CCOCC2)cc(C)c1Cc1ccc(O)c(C(C)C)c1` [Compound 9, 2-(morpholin-4-yl)ethyl 2-(4-{[4-hydroxy-3-(propan-2-yl)phenyl]methyl}-3,5-dimethylphenoxy)acetate], in data set [1] (setting [4]), the “brain/serum ratio of sobetirome (in words)” value is given as “did not significantly increase” and the “brain sobetirome levels compared to equimolar systemic injection of sobetirome” value is “did not significantly increase”.
For `Cc1cc(OCC(=O)OCCN)cc(C)c1Cc1ccc(O)c(C(C)C)c1.Cl` [Compound 11, GC1-ethanolamine], in data set [2] (mice, full time course), the “sobetirome exposure in brain compared to direct sobetirome injection” value is reported as “increased sobetirome exposure”, the “sobetirome exposure in liver compared to direct sobetirome injection” value is recorded as “decreased sobetirome exposure” and the “sobetirome exposure in serum compared to direct sobetirome injection” value is recorded as “decreased sobetirome exposure”. Further, in data set [1] (setting [4]), the “brain sobetirome levels compared to equimolar systemic injection of sobetirome” value was “significant brain sobetirome level increases”, the “liver sobetirome levels compared to direct sobetirome injection” value is recorded as “significantly lower” and the “serum sobetirome levels compared to direct sobetirome injection” value is “significantly lower”. Further, the “CNS distribution of sobetirome (in words)” value in data set [1] is given as “improved CNS distribution”.
As to `Cc1cc(OCC(=O)OC2CNC2)cc(C)c1Cc1ccc(O)c(C(C)C)c1` [Compound 15, azetidin-3-yl 2-(4-{[4-hydroxy-3-(propan-2-yl)phenyl]methyl}-3,5-dimethylphenoxy)acetate], in data set [2] (setting [5]), the “Sobetirome Distribution AUCbrain/AUCliver” value amounted to 0.20, the “Sobetirome Distribution AUCbrain/AUCserum” value was found to be 1.3 and the “brain/serum ratio of sobetirome based on AUC” value is 1.31. Also, in data set [2] (mouse, in vivo), the “sobetirome exposure in brain compared to direct sobetirome injection” value is recorded as “increased sobetirome exposure”, the “sobetirome exposure in liver compared to direct sobetirome injection” value is “decreased sobetirome exposure” and the “sobetirome exposure in serum compared to direct sobetirome injection” value is recorded as “decreased sobetirome exposure”. Also, in data set [2] (mouse, in vivo, ip), the “CNS distribution properties compared to 11” value was “superior CNS distribution properties”, the “increase in sobetirome AUC(brain)/AUC(liver) relative to sobetirome” value is given as “five-fold increase” and the “time to reach Cmax” value was 1 h. Moreover, in data set [1] (setting [4]), the “brain sobetirome levels compared to equimolar systemic injection of sobetirome” value was “significant brain sobetirome level increases”, the “liver sobetirome levels compared to direct sobetirome injection” value is “significantly lower” and the “serum sobetirome levels compared to direct sobetirome injection” value is listed as “significantly lower”. Further, the “CNS distribution of sobetirome (in words)” value in data set [1] was “improved CNS distribution”.
As for `Cc1cc(OCC(=O)O)cc(C)c1Cc1ccc(O)c(C(C)C)c1` [Sobetirome], the “AUC0-->t of sobetirome” value in data set [2] (mouse brain) worked out at 10.8 ng·h/g; in data set [2] (mouse liver) it was 293 ng·h/g; in data set [2] (mouse serum) it was 68.2 ng·h/g. The same molecule had a half-life in data set [3] of 90 min.

By half-life is commonly meant the time in which the quantity being followed falls by half. Low values mean fast loss, high ones slow loss.

The values above are taken from patent US9701650B2, “Derivatives of sobetirome” (OREGON HEALTH & SCIENCE UNIVERSITY, priority 2015, dated 2017).
